Paper PMC7277860, “Viridistratins A−C, Antimicrobial and Cytotoxic Benzo[j]fluoranthenes from Stromata of Annulohypoxylon viridistratum (Hypoxylaceae, Ascomycota)” (Biomolecules, 2020)
In brackets after ≈: the same amount, converted by molar mass.

Assays:
Test in all cases: MIC serial dilution assay
Assay type in all cases: cell-based
[1] = test system: Micrococcus luteus; settings: overnight, 30 °C, reference oxytetracycline 0.1 mg/mL; for MIC: Micrococcus luteus, DSM1790, Micrococcus luteus DSM1790, read-out: Minimum Inhibitory Concentration (MIC)
Experimental: (§1) Compounds 1, 2, 4 and 5 were dissolved in MeOH (1 mg/mL) for the antimicrobial activity assay, while compound 3 was dissolved in MeOH: DMSO 9+1 (1 mg/mL). The solvents were also used as negative controls.
(§2) Minimum inhibitory concentrations (MIC) were determined in a serial dilution assay, as described previously; a detailed protocol can be found in the Supporting Information. The compounds (1 mg/mL) were diluted to a range of 66.7 to 0.52 µg/mL and incubated with the test organisms overnight. Inhibition of growth was visually evaluated the next day: the MIC is defined as the lowest concentration of the test compound where no growth of the test organism was observed. Various test organisms of fungal and bacterial origin were tested to cover a broad range of microorganisms. This selection is also being used as a standard test panel in our attempts to discover new anti-infectives, as it represents a broad spectrum of pathogens of clinical interest, as well as sensitive indicator strains (bacteria: Bacillus subtilis, Staphylococcus aureus, Micrococcus luteus, Chromobacterium violaceum, Escherichia coli and Pseudomonas aeruginosa; mycobacteria: Mycolicibacterium smegmatis and fungi: Candida albicans, Schizosaccharomyces pombe, Mucor hiemalis, Pichia anomala and Rhodotorula glutinis).
(§3) Protocol: Antimicrobial Activi ty Assay
(§4) The assay was conducted as a minimum inhi bitory concentration (MIC) assay in 96-well ro und-bottom mi crotiter pl ate s usi ng the p ar ameter s su mm ari zed i n T a bl e S 1 and as already described i n [S1].
(§5) Stocks of the test organi sms were generated by growing the organisms o ver ni ght i n 50 mL shaki ng fl asks fi ll ed wi th 25 mL of the growth medi um at 140 rpm (for media and temperatures see Table S1). If the organisms were well grown the ne xt day, which was checked by occurrence of an optical density (OD)>30 of the suspension (OD600 nm for bacteria, OD548 nm for fungi and M. smegma tis) , aliquots of these were stored i n 1.5 mL reaction tube s in a freezer at −80 °C for up to 12 mo nths . Upon use, aliquots were unth awed and the OD of the suspension measured and adjusted by diluting with the respective growth medi um. OD600 nm w as adj usted to 0.01 and OD548 nm to 0.1.
(§6) Subse que ntly, 150 µL o f the adjusted suspensions were added to all wells of a 96-wel l microtiter pl ate (one test organi sm per plate). In row A, additional 130 µL of suspensions plus 20 µL of the test compounds (1 mg/mL) and the controls (one compound/column) were added. MeOH as well as MeOH:DMSO 9+1 were used as negative controls, while different positive controls (refer ences) were used for the test organisms (see Tabl e S1). Then, starti ng from row A, 150 µ L of the suspension were transferred to the next row, the contents thoroughly mixed, and 150 µ L transferred to the following row.
(§7) The remaining 150 µ L after row H were discarded. […]
(§8) compounds, ranging from 66.7 µg/mL i n row A to 0.52 µg/mL i n row H.
(§9) The microtiter plates were then incubated overnight o n a microplate shaker at 800 rpm at 30 or 37 °C (see Table S1) and were visually evaluated the next day. The MIC is defined as the lowest concentration were no growth of the test organism was o bserved. A lower MIC thus corresponds to a higher antimicrobial activity of the test compound.
(§10) Table S1: MIC assay ex per i men t parameters test organism strain No. growth incubation positive control (reference) […]
Micrococcus luteu s DSM1790 MHB 1 30 oxytetr acyclin 0.1 mg/mL […]
(§11) Rhodotorula glutinis DSM10134 MYC 3 30 nyst ati n 1.0 mg/mL
(§12) 1 MHB: Müller-Hinton Broth (SN X927.1, Ca r l Roth GmbH, Karlsruhe, Germany) 2 7H9+ADC: Middlebrook 7H9 Broth Base + Middlebrook ADC Growth Supplement (SN M0678+M0553, Merck, Darmstadt, Germany)
(§13) 3 MYC: 1 % w/v, bacto peptone, 1% w/v yeast extract, 2 % w /v glycerol, pH 6.3 [S1] Helaly, S.E.; Ashrafi, S.; Teponno, R.B.; Bernecker, S.; Dababat, A.A.; Maier, W.; Stadler, M.
(§14) Nematicidal Cyclic Lipodepsipeptides and a Xanthocillin Derivative from a Phaeosphariaceous […]

[2] = test system: Pseudomonas aeruginosa; settings: Pseudomonas aeruginosa PA14; overnight, 37 °C; reference gentamicin 0.1 mg/mL; read-out: Minimum Inhibitory Concentration (MIC)
Experimental: as §1, §2, §3, §4, §5, §6, §7, §8, §9, §10
Pseudomonas a erugi nosa PA14 MHB 1 37 gent amici n 0.1 mg/mL […]
as §11, §12, §13, §14

[3] = test system: Mycolicibacterium smegmatis; settings: Mycolicibacterium smegmatis ATCC700084; overnight, 37 °C; reference kanamycin 0.1 mg/mL; read-out: Minimum Inhibitory Concentration (MIC)
Experimental: as §1, §2, §3, §4, §5, §6, §7, §8, §9, §10, §11, §12, §13, §14

[4] = test system: Mucor hiemalis; settings: Mucor hiemalis DSM2656; overnight, 30 °C; reference nystatin 1 mg/mL; read-out: Minimum Inhibitory Concentration (MIC)
Experimental: as §1, §2, §3, §4, §5, §6, §7, §8, §9, §10
Mucor hiemalis DSM2656 MYC 3 30 nyst ati n 1.0 mg/mL […]
as §11, §12, §13, §14

[5] = test system: Rhodotorula glutinis; settings: Rhodotorula glutinis, DSM10134, Rhodotorula glutinis DSM10134; overnight, 30 °C; reference nystatin 1 mg/mL; read-out: Minimum Inhibitory Concentration (MIC)
Experimental: as §1, §2, §3, §4, §5, §6, §7, §8, §9, §10, §11, §12, §13, §14

| Structure (SMILES) | MIC [1] [µg/mL] | MIC [2] [µg/mL] | MIC [3] [µg/mL] | MIC [4] [µg/mL] | MIC [5] [µg/mL] | Minimum Inhibitory Concentration (MIC) ([1]; Micrococcus luteus DSM1790) [µg/mL] |
| --- | --- | --- | --- | --- | --- | --- |
| COc1cccc2c3c(ccc12)-c1ccc(O)c2c(O)ccc-3c12 [Compound 2, viridistratin B] | 8.3 (≈ 26.4 µM) | > 66.7 | 33.3 (≈ 106 µM) | 4.2 (≈ 13.4 µM) | 33.3 (≈ 106 µM) | – |
| O=C1C[C@H]2C(=C3CCC(=O)c4c(O)ccc2c43)c2cccc(O)c21 [Compound 4, truncatone A] | 16.7 (≈ 52.5 µM) | > 66.7 | > 66.7 | > 66.7 | > 66.7 | 33.3 |
| COc1cccc2c3c(ccc12)-c1ccc(O)c2c(OC)ccc-3c12 [Compound 3, viridistratin C] | – | > 66.7 | > 66.7 | > 66.7 | > 66.7 | – |

The next lines start with results.

| MIC [1] [µg/mL] | MIC [2] [µg/mL] | MIC [3] [µg/mL] | MIC [4] [µg/mL] | MIC [5] [µg/mL] | Structure (SMILES) | Minimum Inhibitory Concentration (MIC) ([1]; Micrococcus luteus DSM1790) [µg/mL] |
| --- | --- | --- | --- | --- | --- | --- |
| 16.7 (≈ 50.3 µM) | > 66.7 | > 66.7 | 66.7 (≈ 201 µM) | – | O=C1CCC(=O)c2c1c(O)cc1c2-c2ccc(O)c3c(O)ccc-1c23 [Compound 5, truncatone C] | – |
| 16.7 (≈ 55.6 µM) | > 66.7 | > 66.7 | 66.7 (≈ 222 µM) | 33.3 (≈ 111 µM) | Oc1cccc2c3c(ccc12)-c1ccc(O)c2c(O)ccc-3c12 [Compound 1, viridistratin A] | – |
